Patent publication US20090312280A1
pEC50, pIC50: −log10 of the molar value.

What was measured:
Yes = Yes (Homo sapiens, UniProt P07947); assay: biochemical kinase screening assay
Flt3 = Flt3 (Homo sapiens, UniProt P36888); assay: biochemical kinase screening assay
Rsk1 = Rsk1 (Homo sapiens, UniProt Q15418); assay: biochemical kinase screening assay
Axl = Axl (Homo sapiens, UniProt P30530); assay: biochemical kinase screening assay
Fgr = Fgr (Homo sapiens, UniProt P09769); assay: biochemical kinase screening assay
Abl(m) = Abl(m) (Mus musculus, UniProt P00520); assay: biochemical kinase screening assay
PDGFRa = PDGFRa (Homo sapiens, UniProt P16234); assay: biochemical kinase screening assay
Chk2 = Chk2 (Homo sapiens, UniProt O96017); assay: cell-based or ex vivo assays of CHK2 activity
[1] = tested on: G2 checkpoint induced by camptothecin (Histone H3 phosphorylation on Ser10); assay: Histone H3 phosphorylation assay (G2 checkpoint abrogation); type: cell-based; details: read-out: EC50, abrogation of G2 checkpoint (increase in Histone H3 phosphorylation on Ser10)
HT29 (Colon) = assay: cell survival / MTT combination cytotoxicity; type: cell-based, human; details: Homo sapiens, HT-29
Colo205 (Colon) = assay: cell survival / MTT combination cytotoxicity; type: cell-based, human; details: Homo sapiens, COLO 205
K562 (Leukemia) = assay: cell survival / MTT combination cytotoxicity; type: cell-based, human; details: Homo sapiens
[2] = tested on: p53-defective human cancer cell lines; assay: cell survival / MTT assays, cell line not named; type: cell-based
mutant p53 HCT116 cells = assay: cell survival assay, transiently transfected p53 mutant; type: cell-based, human; details: Compound 1 + gemcitabine compared with gemcitabine alone
Method: (§1) The cytotoxic effect induced by the combination treatment in HUVEC cells is negligible compared with the cytotoxicity induced by the same treatment in tumor cells. […] A cell survival assay was also performed in HTC116 cells (human colon carcinoma) that were transiently transfected with a plasmid containing either p53 wild type or mutant.

[3] = tested on: wild type p53 HCT116 cells; assay: cell survival assay, transiently transfected p53 wild type; type: cell-based, human; details: Compound 1 + gemcitabine compared with gemcitabine alone
Method: as §1

A431 tumor xenografts = assay: in vivo radio sensitizing study, A431 xenograft; set-up: species or system mice; details: for Normalized Tumor Growth Delay: versus drug alone; for Tumor Growth Delay: versus vehicle control
Text: Female Balb/c nude mice (Age 6 weeks) were inoculated on the right hind limb with 3×10^6 A431 cells in PBS and allowed the tumor to grow to a mean tumor volume ˜100 mm^3. The mice were randomized into groups of 10 animals each group.
The unanaesthetized mice were then subjected to radiation. Radiation was delivered using a 6 MeV high dose rate electron beam from a Varian 2100 Linear Accelerator (Palo Alto, Calif.). The dose rate used was 20 Gy/min. The depth-dose characteristics of the electron beam were such that dose uniformity to within ±5 % was obtained over a 10 mm depth of tissue. This was sufficient to cover all tumor irradiated. The tumor was irradiated though a 25 mm square collimator cut from 3 mm thick lead sheet attached to a 6 mm thick Perspex sheet. The separation between the tumor and the lower (Perspex) side of the surface collimator was approximately 25 mm. The apparatus was supported on a plate heated to 37° C. in order to reduce the effects of heat loss in the mice. Radiation doses were calculated and delivered by a senior radiation physicist. Radiotherapy was given as described above on Days 0-4 as 2, 3 or 4 Gy daily fractions.
The solution was prepared immediately prior to dosing and (15 mg/kg) was administered by intraperitoneal injection at 15 mg/kg on Days 0-4 immediately following radiotherapy. The above solution that contains no Compound 1 is considered as the “drug vehicle” or “vehicle”. Drug vehicle was administered at 0.1 ml/10 g body weight on the same schedule.
Each group of mice were treated with Compound 1 only, radiation only, or the combination of Compound 1 and radiation. Animals were sacrificed when Tumor Volume Ratio (TVR) reached or exceeded 4 or if the mouse had lost more than 15% of its baseline body weight at Day 0. Tumor Volume Ratio is defined as the ratio between the tumors volume at a particular time and the baseline tumor volume, which is the tumor volume at Day 0.
Tumor volume was measured three times weekly from day 0 to day 11 and even further to day 23. Tumor volume was measured using electronic calipers and calculated as length/2×width^2. The mean tumor volume was calculated for each group of mice.
Tumor growth delay is defined as the median time in days for tumors to reach a TVR of 4 minus time for vehicle control tumors to reach the same size. Normalized growth delay is defined as the time in days for tumors in combination treated mice to reach TVR of 4 minus time in days for tumors in drug alone treated mice to reach the same size. Enhancement ratio is defined as normalized tumor growth delay in mice treated with drug and radiation divided by tumor growth delay in mice treated with radiation alone.

in vivo = details: mouse
[4] = Compound 1 15 mg/kg IP plus Radiation (2 Gy × 5)
[5] = Compound 1 15 mg/kg IP plus Radiation (3 Gy × 5)
[6] = Compound 1 15 mg/kg IP plus Radiation (4 Gy × 5)
[7] = Compound 1 alone, 15 mg/kg IP Days 0-4

Sequence of Abl(m) (P00520 whole entry): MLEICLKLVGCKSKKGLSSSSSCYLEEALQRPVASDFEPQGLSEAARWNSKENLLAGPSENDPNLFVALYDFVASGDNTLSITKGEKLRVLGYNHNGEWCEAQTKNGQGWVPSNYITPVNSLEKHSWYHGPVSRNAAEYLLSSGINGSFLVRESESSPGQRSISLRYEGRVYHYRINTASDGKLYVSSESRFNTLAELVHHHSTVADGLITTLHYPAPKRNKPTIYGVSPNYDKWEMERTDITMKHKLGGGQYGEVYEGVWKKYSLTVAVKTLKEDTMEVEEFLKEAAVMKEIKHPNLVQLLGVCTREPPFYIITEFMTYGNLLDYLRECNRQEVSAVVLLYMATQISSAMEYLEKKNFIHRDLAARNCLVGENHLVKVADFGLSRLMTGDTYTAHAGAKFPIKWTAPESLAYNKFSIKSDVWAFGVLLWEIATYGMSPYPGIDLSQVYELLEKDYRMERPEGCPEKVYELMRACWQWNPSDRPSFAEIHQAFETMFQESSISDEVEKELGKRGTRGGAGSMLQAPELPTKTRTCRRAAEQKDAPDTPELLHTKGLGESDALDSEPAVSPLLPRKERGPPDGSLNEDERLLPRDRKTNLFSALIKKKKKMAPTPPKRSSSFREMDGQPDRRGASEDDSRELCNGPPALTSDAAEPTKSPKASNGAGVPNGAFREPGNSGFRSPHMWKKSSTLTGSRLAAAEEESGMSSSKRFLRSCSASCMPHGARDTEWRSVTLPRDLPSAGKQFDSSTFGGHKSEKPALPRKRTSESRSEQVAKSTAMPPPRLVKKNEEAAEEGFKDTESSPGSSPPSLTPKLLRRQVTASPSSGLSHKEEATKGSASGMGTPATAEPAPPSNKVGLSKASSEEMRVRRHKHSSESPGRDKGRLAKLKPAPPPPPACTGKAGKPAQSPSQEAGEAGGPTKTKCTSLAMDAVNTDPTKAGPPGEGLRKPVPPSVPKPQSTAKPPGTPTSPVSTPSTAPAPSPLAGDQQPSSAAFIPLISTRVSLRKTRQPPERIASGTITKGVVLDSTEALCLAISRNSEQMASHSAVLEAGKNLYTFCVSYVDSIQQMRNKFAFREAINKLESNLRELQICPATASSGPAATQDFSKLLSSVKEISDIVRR
Sequence of Flt3 (P36888 27-993): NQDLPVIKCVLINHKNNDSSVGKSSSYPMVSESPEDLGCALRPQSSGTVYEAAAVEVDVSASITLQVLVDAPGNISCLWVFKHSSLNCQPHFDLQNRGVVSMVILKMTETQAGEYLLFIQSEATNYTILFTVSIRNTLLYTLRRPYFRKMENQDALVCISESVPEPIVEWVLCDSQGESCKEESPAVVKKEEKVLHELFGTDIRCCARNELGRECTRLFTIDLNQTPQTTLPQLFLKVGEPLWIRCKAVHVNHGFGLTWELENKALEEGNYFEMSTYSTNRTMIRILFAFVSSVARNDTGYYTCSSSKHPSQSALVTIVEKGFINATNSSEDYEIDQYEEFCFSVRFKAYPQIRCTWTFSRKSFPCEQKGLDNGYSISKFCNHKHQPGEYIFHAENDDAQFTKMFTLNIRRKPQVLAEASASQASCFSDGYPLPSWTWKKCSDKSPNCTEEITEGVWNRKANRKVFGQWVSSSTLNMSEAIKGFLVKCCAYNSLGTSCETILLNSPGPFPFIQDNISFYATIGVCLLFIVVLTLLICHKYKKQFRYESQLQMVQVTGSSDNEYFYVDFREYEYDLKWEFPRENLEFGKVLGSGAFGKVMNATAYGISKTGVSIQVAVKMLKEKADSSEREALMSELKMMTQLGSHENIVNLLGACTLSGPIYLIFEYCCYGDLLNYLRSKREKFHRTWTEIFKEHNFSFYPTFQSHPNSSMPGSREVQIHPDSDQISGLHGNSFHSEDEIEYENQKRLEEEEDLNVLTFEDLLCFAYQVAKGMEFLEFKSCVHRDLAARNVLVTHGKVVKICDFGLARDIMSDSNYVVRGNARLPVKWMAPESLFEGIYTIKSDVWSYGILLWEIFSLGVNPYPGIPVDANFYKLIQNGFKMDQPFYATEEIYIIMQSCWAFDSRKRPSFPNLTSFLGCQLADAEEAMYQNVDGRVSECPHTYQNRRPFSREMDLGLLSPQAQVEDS
Sequence of Fgr (P09769 whole entry): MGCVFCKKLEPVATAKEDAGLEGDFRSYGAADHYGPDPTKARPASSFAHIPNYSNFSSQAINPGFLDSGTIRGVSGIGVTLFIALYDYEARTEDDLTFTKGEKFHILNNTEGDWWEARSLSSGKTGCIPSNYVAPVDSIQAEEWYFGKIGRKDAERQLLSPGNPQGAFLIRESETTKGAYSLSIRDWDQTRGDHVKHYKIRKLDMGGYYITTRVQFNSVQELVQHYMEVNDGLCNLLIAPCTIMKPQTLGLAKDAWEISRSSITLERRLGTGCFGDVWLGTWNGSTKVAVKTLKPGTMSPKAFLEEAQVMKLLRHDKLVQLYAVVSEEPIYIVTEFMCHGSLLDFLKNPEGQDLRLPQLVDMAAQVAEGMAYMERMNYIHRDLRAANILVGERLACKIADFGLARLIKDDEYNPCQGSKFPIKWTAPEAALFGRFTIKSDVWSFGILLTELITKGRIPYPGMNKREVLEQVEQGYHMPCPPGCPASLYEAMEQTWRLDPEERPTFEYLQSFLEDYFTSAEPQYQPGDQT
Sequence of Yes (P07947 whole entry): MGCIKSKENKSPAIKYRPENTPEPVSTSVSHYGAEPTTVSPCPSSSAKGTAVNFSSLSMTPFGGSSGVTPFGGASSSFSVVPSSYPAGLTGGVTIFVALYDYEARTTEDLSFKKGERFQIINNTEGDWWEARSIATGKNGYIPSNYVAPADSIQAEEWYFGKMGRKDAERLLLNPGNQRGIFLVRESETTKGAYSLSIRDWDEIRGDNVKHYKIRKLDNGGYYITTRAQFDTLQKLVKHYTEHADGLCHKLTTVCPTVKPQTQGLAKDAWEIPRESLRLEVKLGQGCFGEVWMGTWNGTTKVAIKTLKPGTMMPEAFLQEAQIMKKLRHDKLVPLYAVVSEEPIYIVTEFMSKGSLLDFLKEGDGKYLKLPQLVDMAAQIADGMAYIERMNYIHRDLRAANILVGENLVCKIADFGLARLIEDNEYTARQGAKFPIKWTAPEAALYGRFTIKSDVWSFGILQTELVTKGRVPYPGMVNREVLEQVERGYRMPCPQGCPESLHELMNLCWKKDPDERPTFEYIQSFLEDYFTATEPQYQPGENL
Sequence of Chk2 (O96017 whole entry): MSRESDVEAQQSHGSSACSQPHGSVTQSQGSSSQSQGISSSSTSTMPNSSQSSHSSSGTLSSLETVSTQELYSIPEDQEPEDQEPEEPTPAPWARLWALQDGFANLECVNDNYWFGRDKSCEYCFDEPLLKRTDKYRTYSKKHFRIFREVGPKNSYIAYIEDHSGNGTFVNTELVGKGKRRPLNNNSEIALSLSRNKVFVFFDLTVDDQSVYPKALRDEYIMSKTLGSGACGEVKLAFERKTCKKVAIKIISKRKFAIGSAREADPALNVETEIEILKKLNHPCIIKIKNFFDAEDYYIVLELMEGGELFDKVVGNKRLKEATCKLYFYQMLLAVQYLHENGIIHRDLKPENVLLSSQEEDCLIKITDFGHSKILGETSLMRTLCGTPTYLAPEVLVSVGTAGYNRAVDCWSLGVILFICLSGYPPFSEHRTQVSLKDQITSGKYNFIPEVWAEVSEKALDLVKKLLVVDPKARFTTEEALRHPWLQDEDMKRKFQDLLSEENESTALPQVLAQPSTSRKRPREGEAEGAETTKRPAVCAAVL
Sequence of PDGFRa (P16234 24-1089): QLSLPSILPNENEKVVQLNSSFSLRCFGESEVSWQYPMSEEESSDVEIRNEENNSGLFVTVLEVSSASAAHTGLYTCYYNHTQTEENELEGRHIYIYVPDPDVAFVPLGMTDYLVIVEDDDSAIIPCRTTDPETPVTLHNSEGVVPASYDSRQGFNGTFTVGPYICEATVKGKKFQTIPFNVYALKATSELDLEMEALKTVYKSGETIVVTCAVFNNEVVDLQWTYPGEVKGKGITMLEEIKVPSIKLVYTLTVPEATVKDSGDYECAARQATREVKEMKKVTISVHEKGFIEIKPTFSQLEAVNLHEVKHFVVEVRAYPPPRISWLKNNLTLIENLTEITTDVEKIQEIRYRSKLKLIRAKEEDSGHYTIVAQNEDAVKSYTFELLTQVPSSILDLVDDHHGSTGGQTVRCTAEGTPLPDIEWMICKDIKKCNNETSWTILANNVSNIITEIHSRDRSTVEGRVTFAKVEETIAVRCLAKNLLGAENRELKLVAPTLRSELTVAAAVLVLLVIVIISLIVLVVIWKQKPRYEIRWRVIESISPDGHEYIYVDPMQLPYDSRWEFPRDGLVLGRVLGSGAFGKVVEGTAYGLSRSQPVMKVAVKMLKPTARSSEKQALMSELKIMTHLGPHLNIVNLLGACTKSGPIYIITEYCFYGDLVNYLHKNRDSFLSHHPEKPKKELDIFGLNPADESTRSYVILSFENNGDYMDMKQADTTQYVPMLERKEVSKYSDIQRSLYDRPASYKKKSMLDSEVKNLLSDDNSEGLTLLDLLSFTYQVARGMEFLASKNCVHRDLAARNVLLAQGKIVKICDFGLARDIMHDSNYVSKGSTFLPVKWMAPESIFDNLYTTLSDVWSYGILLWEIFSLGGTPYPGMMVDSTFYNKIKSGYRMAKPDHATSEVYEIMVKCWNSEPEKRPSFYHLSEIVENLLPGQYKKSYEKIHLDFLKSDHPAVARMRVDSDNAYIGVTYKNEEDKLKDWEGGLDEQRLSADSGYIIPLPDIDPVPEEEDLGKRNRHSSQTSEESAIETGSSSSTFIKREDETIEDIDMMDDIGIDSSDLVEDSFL

SMILES: Cn1cc(-c2[nH]c3cc(NC(=O)[C@H](N)C4CCCCC4)cc4c3c2C=NNC4=O)cn1 [Compound 1]
- pIC50 (Yes): 7.85
- pIC50 (Flt3): 7.60
- pIC50 (Rsk1): 7.01
- pIC50 (Axl): 6.93
- pIC50 (Fgr): 6.82
- pIC50 (Abl(m)): 6.03
- pIC50 (PDGFRa): 5.55
- modulation of CHK2 activity (Chk2): no evidence that CHK2 activity is modulated
- pEC50 [1]: 7.35
- pIC50 (HT29 (Colon)): 5.74
- pIC50 (Colo205 (Colon)): 5.89
- pIC50 (K562 (Leukemia)): 6.38
- effect on cell viability ([2]; Compound 1 alone compared with control (untreated) cells): no significant effect on cell viability
- potentiation of gemcitabine cytotoxicity ([2]; combination with gemcitabine compared with gemcitabine alone): 89%
- cell growth inhibition (mutant p53 HCT116 cells): 44%
- cell growth inhibition [3]: 15%
- Median time to TVR = 4 (A431 tumor xenografts; [4]): 11.1 days
- Normalized Tumor Growth Delay (A431 tumor xenografts; [4]): 3.75 days
- Tumor Growth Delay (A431 tumor xenografts; [4]): 2.7 days
- Median time to TVR = 4 (A431 tumor xenografts; [5]): 15.1 days
- Normalized Tumor Growth Delay (A431 tumor xenografts; [5]): 7.75 days
- Tumor Growth Delay (A431 tumor xenografts; [5]): 6.7 days
- Median time to TVR = 4 (A431 tumor xenografts; [6]): 13 days
- Normalized Tumor Growth Delay (A431 tumor xenografts; [6]): 5.65 days
- Tumor Growth Delay (A431 tumor xenografts; [6]): 4.6 days
- Median time to TVR = 4 (A431 tumor xenografts; [7]): 7.35 days
- Tumor Growth Delay (A431 tumor xenografts; [7]): -1.05 days
- mean tumor volume (A431 tumor xenografts; day 0, 2 Gy + Cmpd 1 15 mg/kg IP, Days 0-4): 94.51 mm^3
- mean tumor volume (A431 tumor xenografts; day 0, 3 Gy + Cmpd 1 15 mg/kg IP, Days 0-4): 104.26 mm^3
- mean tumor volume (A431 tumor xenografts; day 0, 4 Gy + Cmpd 1 15 mg/kg IP, Days 0-4): 101.97 mm^3
- mean tumor volume (A431 tumor xenografts; day 0, Cmpd 1 only, 15 mg/kg IP Days 0-4): 104.23 mm^3
- mean tumor volume (A431 tumor xenografts; day 2, 2 Gy + Cmpd 1 15 mg/kg IP, Days 0-4): 145.53 mm^3
- mean tumor volume (A431 tumor xenografts; day 2, 3 Gy + Cmpd 1 15 mg/kg IP, Days 0-4): 149.88 mm^3
- mean tumor volume (A431 tumor xenografts; day 2, 4 Gy + Cmpd 1 15 mg/kg IP, Days 0-4): 150.81 mm^3
- mean tumor volume (A431 tumor xenografts; day 2, Cmpd 1 only, 15 mg/kg IP Days 0-4): 158.07 mm^3
- mean tumor volume (A431 tumor xenografts; day 4, 2 Gy + Cmpd 1 15 mg/kg IP, Days 0-4): 198.57 mm^3
- mean tumor volume (A431 tumor xenografts; day 4, 3 Gy + Cmpd 1 15 mg/kg IP, Days 0-4): 210.23 mm^3
- mean tumor volume (A431 tumor xenografts; day 4, 4 Gy + Cmpd 1 15 mg/kg IP, Days 0-4): 209.44 mm^3
- mean tumor volume (A431 tumor xenografts; day 4, Cmpd 1 only, 15 mg/kg IP Days 0-4): 242.46 mm^3
- mean tumor volume (A431 tumor xenografts; day 7, 2 Gy + Cmpd 1 15 mg/kg IP, Days 0-4): 255.23 mm^3
- mean tumor volume (A431 tumor xenografts; day 7, 3 Gy + Cmpd 1 15 mg/kg IP, Days 0-4): 200.48 mm^3
- mean tumor volume (A431 tumor xenografts; day 7, 4 Gy + Cmpd 1 15 mg/kg IP, Days 0-4): 307.93 mm^3
- mean tumor volume (A431 tumor xenografts; day 7, Cmpd 1 only, 15 mg/kg IP Days 0-4): 418.28 mm^3
- mean tumor volume (A431 tumor xenografts; day 9, 2 Gy + Cmpd 1 15 mg/kg IP, Days 0-4): 339.76 mm^3
- mean tumor volume (A431 tumor xenografts; day 9, 3 Gy + Cmpd 1 15 mg/kg IP, Days 0-4): 164.45 mm^3
- mean tumor volume (A431 tumor xenografts; day 9, 4 Gy + Cmpd 1 15 mg/kg IP, Days 0-4): 294.63 mm^3
- mean tumor volume (A431 tumor xenografts; day 9, Cmpd 1 only, 15 mg/kg IP Days 0-4): 580.35 mm^3
- mean tumor volume (A431 tumor xenografts; day 11, 2 Gy + Cmpd 1 15 mg/kg IP, Days 0-4): 401.96 mm^3
- mean tumor volume (A431 tumor xenografts; day 11, 3 Gy + Cmpd 1 15 mg/kg IP, Days 0-4): 210.35 mm^3
- mean tumor volume (A431 tumor xenografts; day 11, 4 Gy + Cmpd 1 15 mg/kg IP, Days 0-4): 487.78 mm^3
- mean tumor volume (A431 tumor xenografts; day 11, Cmpd 1 only, 15 mg/kg IP Days 0-4): 790.82 mm^3
- mean tumor volume (A431 tumor xenografts; day 14, 2 Gy + Cmpd 1 15 mg/kg IP, Days 0-4): 644.80 mm^3
- mean tumor volume (A431 tumor xenografts; day 14, 3 Gy + Cmpd 1 15 mg/kg IP, Days 0-4): 283.51 mm^3
- mean tumor volume (A431 tumor xenografts; day 14, 4 Gy + Cmpd 1 15 mg/kg IP, Days 0-4): 815.01 mm^3
- mean tumor volume (A431 tumor xenografts; day 16, 3 Gy + Cmpd 1 15 mg/kg IP, Days 0-4): 408.01 mm^3
- mean tumor volume (A431 tumor xenografts; day 18, 3 Gy + Cmpd 1 15 mg/kg IP, Days 0-4): 433.83 mm^3
- mean tumor volume (A431 tumor xenografts; day 21, 3 Gy + Cmpd 1 15 mg/kg IP, Days 0-4): 395.17 mm^3
- mean tumor volume (A431 tumor xenografts; day 23, 3 Gy + Cmpd 1 15 mg/kg IP, Days 0-4): 513.31 mm^3
- MTD (in vivo): 60 mg/kg
